Each structure is given as a SMILES string.

Experiment [1] deals with T-cell. The experiment is described as follows: CD25 cell surface staining on T-cells stimulated with anti-CD3 antibody alone (Biological Example 2). Format: cell-based, human. The note with it: Homo sapiens, T-cell; 1 μM Cbl-b inhibitor; fold change over baseline (anti-CD3/anti-CD28 stimulated T-cells without inhibitor); read-out: CD25 staining Anti-CD3 stimulation.
The target of experiment [2] is T1, Cbl-b (Homo sapiens, UniProt Q13191). The experiment is described as follows: Cbl-b inhibition assay (Cbl-b activity assay, FRET, Biological Example 1; 100 mM NaCl, 60 nM Src kinase). The note with it: upper bound stated in text lists; read-out: IC50 values in the Cbl-b inhibition assay of Biological Example 1. It counts as biochemical. The method in brief:
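Here, the E2 UbcH5B, irreversibly linked to Bodipy-fluorescein ubiquitin, binds Cbl-b once Src kinase phosphorylates it; Cbl-b carries an N-terminal biotinylated Avi-tag captured by streptavidin-terbium. An absent FRET signal indicates inhibition.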

For experiment [3], the system named is T-cell. As to the kind of experiment: IL-2 secretion from T-cells co-stimulated with anti-CD3 and anti-CD28 antibody (Biological Example 2). The note with it: Homo sapiens, T-cell, fold change over baseline (anti-CD3/anti-CD28 stimulated T-cells without inhibitor), read-out: IL-2 secretion Anti-CD3/Anti-CD28 stimulation; for fold induction at 0.3 µM: 0.3 μM Cbl-b inhibitor; for fold induction at 1 µM: 1 μM Cbl-b inhibitor. Format: cell-based, human. The method in brief:
(§1)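 Values are fold-change over baseline: readings (IL-2 release, CD25 staining) from inhibitor-treated T-cells divided against untreated cells […]. No detailed procedure stated.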

For experiment [4], the system named is T-cell. The experiment is described as follows: IL-2 secretion from T-cells stimulated with anti-CD3 antibody alone (Biological Example 2). Format: cell-based, human. The following applies: Homo sapiens, T-cell; 1 μM Cbl-b inhibitor; fold change over baseline (anti-CD3/anti-CD28 stimulated T-cells without inhibitor); read-out: IL-2 secretion Anti-CD3 stimulation.

Experiment [5] relates to T-cell. The experiment is described as follows: CD25 cell surface staining on T-cells co-stimulated with anti-CD3 and anti-CD28 antibody (Biological Example 2). The note with it: Homo sapiens, T-cell, fold change over baseline (anti-CD3/anti-CD28 stimulated T-cells without inhibitor), read-out: CD25 staining Anti-CD3/Anti-CD28 stimulation; for fold induction at 0.3 µM: 0.3 μM Cbl-b inhibitor; for fold induction at 1 µM: 1 μM Cbl-b inhibitor. Format: cell-based, human. In short, it runs like this: as §1

For experiment [6], the target named is T1, Cbl-b. As to the kind of experiment: Cbl-b activity assay (Cbl-b inhibition assay), TR-FRET of Cbl-b interaction with UbcH5B-Ub. The note with it: assay buffer with 100 mM NaCl, 60 nM Src kinase; read-out: Cbl-b activity IC50. It counts as biochemical. In short, it runs like this: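 Compound-treated Cbl-b was incubated 1.5 h with Src kinase (60 nM final; 30 nM for asterisked values, which also used 50 mM instead of 100 mM NaCl), 1 mM ATP and 5 mM MgCl2. Binding to fluorescent Ub-loaded UbcH5B (C85K mutant) was then read by TR-FRET after 1 h more.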

T1 sequence (Q13191 36-427): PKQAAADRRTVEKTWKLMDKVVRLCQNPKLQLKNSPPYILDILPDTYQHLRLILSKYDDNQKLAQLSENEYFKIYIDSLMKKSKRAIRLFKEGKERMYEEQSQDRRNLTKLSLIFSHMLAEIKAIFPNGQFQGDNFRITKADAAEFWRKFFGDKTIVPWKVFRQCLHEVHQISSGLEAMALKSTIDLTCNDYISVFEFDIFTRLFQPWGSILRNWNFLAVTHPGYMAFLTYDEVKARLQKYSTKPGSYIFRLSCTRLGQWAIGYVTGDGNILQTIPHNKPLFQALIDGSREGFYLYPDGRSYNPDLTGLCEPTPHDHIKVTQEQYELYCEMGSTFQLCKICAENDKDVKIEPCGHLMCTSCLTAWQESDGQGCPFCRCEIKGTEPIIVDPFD

On to `Cn1cnnc1CC1(c2cccc(N3Cc4c(cc(N5CC6(CCC6(F)F)C5)cc4C(F)(F)F)C3=O)c2)COC1` [Example 603, 6-(5,5-difluoro-2-azaspiro[3.3]heptan-2-yl)-2-(3-(3-((4-methyl-4H-1,2,4-triazol-3-yl)methyl)oxetan-3-yl)phenyl)-4-(trifluoromethyl)isoindolin-1-one], for which the fold induction at 1 µM in experiment [1] is 0.601 to 0.8; in experiment [3] it was 2.51 to 5; in experiment [4] it was less than 0.05; in experiment [5] it was 1.01 to 1.3. Moreover, the values for the IC50 in experiment [2] and in experiment [6] were not above 0.1 µM and less than 0.1 µM, respectively. Moreover, the fold induction at 0.3 µM in experiment [3] was 1.01 to 2.5; in experiment [5], 1.01 to 1.3.
As for `Cn1cnnc1CC1(c2cccc(NC(=O)c3cc(C4CC4)nc4ccnn34)c2)COC1` [Example 604, 5-cyclopropyl-N-(3-(3-((4-methyl-4H-1,2,4-triazol-3-yl)methyl)oxetan-3-yl)phenyl)pyrazolo[1,5-a]pyrimidine-7-carboxamide], the fold induction at 1 µM in experiment [1] is 0.601 to 0.8; in experiment [3] it was 2.51 to 5; in experiment [4] it was less than 0.05; in experiment [5], 1.01 to 1.3. Moreover, the IC50 was not above 0.1 µM in experiment [2] and less than 0.1 µM in experiment [6]. Also, the fold induction at 0.3 µM in experiment [3] is 1.01 to 2.5; in experiment [5], 1.01 to 1.3.
On to `Cn1cnnc1CC1(c2cccc(NC(=O)c3ccnc4ccnn34)c2)COC1` [Example 605, N-(3-(3-((4-methyl-4H-1,2,4-triazol-3-yl)methyl)oxetan-3-yl)phenyl)pyrazolo[1,5-a]pyrimidine-7-carboxamide], for which the fold induction at 1 µM was 0.601 to 0.8 in experiment [1], 2.51 to 5 in experiment [3], less than 0.05 in experiment [4] and 1.01 to 1.3 in experiment [5]. Also, the IC50 in experiment [2] was not above 0.3 µM; in experiment [6] it was 0.1 to 0.3 µM. The fold induction at 0.3 µM in experiment [3] was 1.01 to 2.5; in experiment [5], 1.01 to 1.3.
As to `Cc1cc(C(=O)Nc2cccc(C3(Cc4nncn4C)COC3)c2)n2ncc(C)c2n1` [Example 606, 3,5-dimethyl-N-(3-(3-((4-methyl-4H-1,2,4-triazol-3-yl)methyl)oxetan-3-yl)phenyl)pyrazolo[1,5-a]pyrimidine-7-carboxamide], the fold induction at 1 µM in experiment [1] lay in the range of 0.801 to 1; in experiment [3] it was 2.51 to 5; in experiment [4] it was 0.051 to 0.1; in experiment [5], 1.01 to 1.3. In addition, the half-inhibitory concentration (IC50) is not above 0.1 µM in experiment [2] and less than 0.1 µM in experiment [6]. Besides, the fold induction at 0.3 µM lay within 2.51 to 5 in experiment [3] and 1.01 to 1.3 in experiment [5].
Consider `CC1CN(c2cc3c(c(C(F)(F)F)c2)CN(c2cccc(C4(Cc5nncn5C)COC4)c2)C3=O)C1` [Example 607, 2-(3-(3-((4-methyl-4H-1,2,4-triazol-3-yl)methyl)oxetan-3-yl)phenyl)-6-(3-methylazetidin-1-yl)-4-(trifluoromethyl)isoindolin-1-one], for which the fold induction at 1 µM in experiment [1] is 0.601 to 0.8; in experiment [3], 2.51 to 5; in experiment [4] it was 0.101 to 0.15; in experiment [5], 1.01 to 1.3. Further, the IC50 in experiment [2] was not above 0.1 µM; in experiment [6], less than 0.1 µM. Also, the fold induction at 0.3 µM was 1.01 to 2.5 in experiment [3] and 1.01 to 1.3 in experiment [5].
With `CC1CN(c2cc3c(c(C(F)(F)F)c2)CN(c2cccc(C4(Cc5nncn5C)COC4)c2)C3=O)C1C` (stereo not drawn) [Example 608, 6-(2,3-dimethylazetidin-1-yl)-2-(3-(3-((4-methyl-4H-1,2,4-triazol-3-yl)methyl)oxetan-3-yl)phenyl)-4-(trifluoromethyl)isoindolin-1-one], the fold induction at 1 µM in experiment [1] fell in the range of 0.601 to 0.8; in experiment [3] it was 2.51 to 5; in experiment [4], 0.051 to 0.1; in experiment [5], 1.01 to 1.3. In addition, the half-inhibitory concentration (IC50) is not above 0.1 µM in experiment [2] and less than 0.1 µM in experiment [6]. The fold induction at 0.3 µM lay within 1.01 to 2.5 in experiment [3] and 1.01 to 1.3 in experiment [5].

Source of the values: US20220324835A1 (Nurix Therapeutics, Inc., priority 2018, published 2022).
